The text below walks through data of patent publication US20060142348A1, “Aryl sulfonamide peri-substituted bicyclics for occlusive artery disease” (deCODE Chemistry, Inc., priority 2004, published 2006).

The target in this test is T1, prostanoid EP3 receptors (Homo sapiens, UniProt P43115).
T1 sequence (P43115 1-365 isoform P43115-3): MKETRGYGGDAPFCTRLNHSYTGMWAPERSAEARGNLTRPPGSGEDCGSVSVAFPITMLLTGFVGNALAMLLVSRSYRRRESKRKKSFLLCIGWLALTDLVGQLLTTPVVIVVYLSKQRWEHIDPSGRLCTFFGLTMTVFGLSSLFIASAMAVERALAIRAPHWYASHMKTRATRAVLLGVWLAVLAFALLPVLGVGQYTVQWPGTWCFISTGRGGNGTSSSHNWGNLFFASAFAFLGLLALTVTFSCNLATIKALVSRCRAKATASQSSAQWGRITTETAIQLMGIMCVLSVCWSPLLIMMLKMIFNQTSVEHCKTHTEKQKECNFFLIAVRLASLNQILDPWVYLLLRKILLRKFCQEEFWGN
The test can be described thus: binding on prostanoid EP3 receptors (method of Abramovitz et al.). Particulars: read-out: Activity (EP3 receptor binding IC50). As for the experimental part: The compounds of the invention may be assayed for their binding on prostanoid EP3 receptors according to the method of Abramovitz et al. [Bioch. Biophys. Actas 1473, 285-293 (2000)]. All of the examples in the tables below have been synthesized, characterized and tested for EP3 receptor binding.
The compounds of the invention were assayed for their binding on prostanoid EP3 receptors according to the method of Abramovitz et al. [Bioch. Biophys. Acta, 1473, 285-293 (2000)]. […] Compounds with IC50<1 μM are shown as +++; compounds with IC50<1-10 μM are shown as ++; and compounds with IC50>10 μM are shown as +.
For orientation: IC50 means the point on the concentration scale where inhibition reaches its midpoint. As to `Cn1cc(Cc2ccc3ccccc3c2)c2c(-c3cc(NS(=O)(=O)c4cc(Cl)c(Cl)s4)n[nH]3)cccc21` [Compound B01, 4,5-Dichloro-thiophene-2-sulfonic acid [5-(1-methyl-3-naphthalen-2-ylmethyl-1H-indol-4-yl)-1H-pyrazol-3-yl]-amide], the IC50 is less than 1 µM.

As for `Cn1cc(Cc2ccc3ccccc3c2)c2c(-c3cc(N)nn3S(=O)(=O)c3cc(Cl)c(Cl)s3)cccc21` [Compound B02, 1-(4,5-Dichloro-thiophene-2-sulfonyl)-5-(1-methyl-3-naphthalen-2-ylmethyl-1H-indol-4-yl)-1H-pyrazol-3-ylamine], the IC50 is 1 to 10 µM.

For the molecule `Cn1cc(Cc2ccc3ccccc3c2)c2c(-c3cccc(NS(=O)(=O)c4cc(Cl)c(Cl)s4)c3)cccc21` [Compound B03, 4,5-Dichloro-thiophene-2-sulfonic acid[3-(1-methyl-3-naphthalen-2-ylmethyl-1H-indol-4-yl)-phenyl]-amide], the IC50 was in the range of 1 to 10 µM.

Take `Cn1cc(Cc2ccc3ccccc3c2)c2c(-c3ccc(NS(=O)(=O)c4cc(Cl)c(Cl)s4)cc3)cccc21` [Compound B04, 4,5-Dichloro-thiophene-2-sulfonic acid[4-(1-methyl-3-naphthalen-2-ylmethyl-1H-indol-4-yl)-phenyl]-amide]: the IC50 lay in the range of 1 to 10 µM.

As to `Cn1cc(Cc2ccc3ccccc3c2)c2c(-c3ccc(NS(C)(=O)=O)cc3)cccc21` [Compound B05, N-[4-(1-Methyl-3-naphthalen-2-ylmethyl-1H-indol-4-yl)-phenyl]-methanesulfonamide], the IC50 fell in the range of 1 to 10 µM.

As for `Cc1cn(Cc2ccc(F)c(F)c2)c2c(-c3ccc(NS(C)(=O)=O)cc3)cc(F)cc12` [Compound B06, N-{4-[1-(3,4-Difluoro-benzyl)-5-fluoro-3-methyl-1H-indol-7-yl]-phenyl}-methanesulfonamide], the IC50 was in the range of 1 to 10 µM.

Regarding `Cc1cn(Cc2ccc(F)c(F)c2)c2c(-c3ccc(NS(=O)(=O)C(F)(F)F)cc3)cc(F)cc12` [Compound B07, N-{4-[1-(3,4-Difluoro-benzyl)-5-fluoro-3-methyl-1H-indol-7-yl]-phenyl}-C,C,C-trifluoro-methanesulfonamide], the IC50 is greater than 10 µM.

With `Cn1cc(Cc2ccc3ccccc3c2)c2c(-c3ccc(NS(=O)(=O)C(F)(F)F)cc3)cccc21` [Compound B08, C,C,C-Trifluoro-N-[4-(1-methyl-3-naphthalen-2-ylmethyl-1H-indol-4-yl)-phenyl]-methanesulfonamide], the IC50 fell in the range of 1 to 10 µM.

With `Cc1cn(Cc2ccc(Cl)cc2Cl)c2c(-c3ccc(NS(C)(=O)=O)cc3)cc(F)cc12` [Compound B09, N-{4-[1-(2,4-Dichloro-benzyl)-5-fluoro-3-methyl-1H-indol-7-yl]-phenyl}-methanesulfonamide], the IC50 is greater than 10 µM.

`Cc1cn(Cc2ccc(Cl)cc2Cl)c2c(-c3nnc(NC(=O)C(F)(F)F)o3)cc(F)cc12` [Compound B10, N-{5-[1-(2,4-Dichloro-benzyl)-5-fluoro-3-methyl-1H-indol-7-yl]-[1,3,4]oxadiazol-2-yl}-2,2,2-trifluoro-acetamide]: the IC50 was in the range of 1 to 10 µM.

On to `Cc1cn(Cc2ccc(Cl)cc2Cl)c2c(-c3nnc(NS(C)(=O)=O)o3)cc(F)cc12` [Compound B11, N-{5-[1-(2,4-Dichloro-benzyl)-5-fluoro-3-methyl-1H-indol-7-yl]-[1,3,4]oxadiazol-2-yl}-methanesulfonamide], for which the IC50 fell in the range of 1 to 10 µM.

For the molecule `Cc1cn(Cc2ccc(Cl)cc2Cl)c2c(-c3nnc(NS(=O)(=O)c4cc(F)c(F)cc4F)o3)cc(F)cc12` [Compound B12, N-{5-[1-(2,4-Dichloro-benzyl)-5-fluoro-3-methyl-1H-indol-7-yl]-[1,3,4]oxadiazol-2-yl}-2,4,5-trifluoro-benzenesulfonamide], the IC50 is less than 1 µM.

Regarding `Cc1cn(Cc2ccc(Cl)cc2Cl)c2c(-c3nnc(NS(=O)(=O)c4cc(Cl)c(Cl)s4)o3)cc(F)cc12` [Compound B13, 4,5-Dichloro-thiophene-2-sulfonic acid {5-[1-(2,4-dichloro-benzyl)-5-fluoro-3-methyl-1H-indol-7-yl]-[1,3,4]oxadiazol-2-yl}-amide], the IC50 is less than 1 µM.

With `Cc1cn(Cc2ccc(F)c(F)c2)c2c(-c3cc(NS(C)(=O)=O)n(C)n3)cc(F)cc12` [Compound B14, N-{5-[1-(3,4-Difluoro-benzyl)-5-fluoro-3-methyl-1H-indol-7-yl]-2-methyl-2H-pyrazol-3-yl}-methanesulfonamide], the IC50 was 1 to 10 µM.

As for `Cc1cn(Cc2ccc(F)c(F)c2)c2c(-c3cc(NS(=O)(=O)c4cc(Cl)c(Cl)s4)n(C)n3)cc(F)cc12` [Compound B15, 4,5-Dichloro-thiophene-2-sulfonic acid {5-[1-(3,4-difluoro-benzyl)-5-fluoro-3-methyl-1H-indol-7-yl]-2-methyl-2H-pyrazol-3-yl}-amide], the IC50 is 1 to 10 µM.

On to `Cc1cn(Cc2ccc(F)c(F)c2)c2c(-c3cc(NS(C)(=O)=O)no3)cc(F)cc12` [Compound B16, N-{5-[1-(3,4-Difluoro-benzyl)-5-fluoro-3-methyl-1H-indol-7-yl]-isoxazol-3-yl}-methanesulfonamide], for which the IC50 is greater than 10 µM.

As for `CC(=O)Nc1ccc(-c2cccc3c2c(Cc2ccc4ccccc4c2)cn3C)cc1` [Compound B17, N-[4-(1-Methyl-3-naphthalen-2-ylmethyl-1H-indol-4-yl)-phenyl]-acetamide], the IC50 fell in the range of 1 to 10 µM.

As to `Cn1cc(Cc2ccc3ccccc3c2)c2c(-c3ccc(NC(=O)C(F)(F)F)cc3)cccc21` [Compound B18, 2,2,2-Trifluoro-N-[4-(1-methyl-3-naphthalen-2-ylmethyl-1H-indol-4-yl)-phenyl]-acetamide], the IC50 was less than 1 µM.

With `Cc1cn(Cc2ccc(Cl)cc2Cl)c2c(-c3nnc(NS(=O)(=O)c4ccc(F)c(F)c4)o3)cc(F)cc12` [Compound B19, N-{5-[1-(2,4-Dichloro-benzyl)-5-fluoro-3-methyl-1H-indol-7-yl]-[1,3,4]oxadiazol-2-yl}-3,4-difluoro-benzenesulfonamide], the IC50 is less than 1 µM.

Take `Cc1cn(Cc2ccc(Cl)cc2Cl)c2c(-c3nnc(NS(=O)(=O)c4ccc(Cl)c(Cl)c4)o3)cc(F)cc12` [Compound B20, 3,4-Dichloro-N-{5-[1-(2,4-dichloro-benzyl)-5-fluoro-3-methyl-1H-indol-7-yl]-[1,3,4]oxadiazol-2-yl}-benzenesulfonamide]: the IC50 was less than 1 µM.

As to `Cc1cn(Cc2ccc(Cl)cc2Cl)c2c(-c3nnc(NC(=O)c4ccc(F)cc4)o3)cc(F)cc12` [Compound B23, N-{5-[1-(2,4-Dichloro-benzyl)-5-fluoro-3-methyl-1H-indol-7-yl]-[1,3,4]oxadiazol-2-yl}-4-fluoro-benzamide], the IC50 fell in the range of 1 to 10 µM.

As for `Cc1cn(Cc2ccc(Cl)cc2Cl)c2c(-c3nnc(NC(=O)c4ccno4)o3)cc(F)cc12` [Compound B24, Isoxazole-5-carboxylic acid {5-[1-(2,4-dichloro-benzyl)-5-fluoro-3-methyl-1H-indol-7-yl]-[1,3,4]oxadiazol-2-yl}-amide], the IC50 lay within 1 to 10 µM.

With `Cc1cn(Cc2ccc(Cl)cc2Cl)c2c(-c3nnc(NC(=O)c4cc(Cl)cc(Cl)c4)o3)cc(F)cc12` [Compound B25, 3,5-Dichloro-N-{5-[1-(2,4-dichloro-benzyl)-5-fluoro-3-methyl-1H-indol-7-yl]-[1,3,4]oxadiazol-2-yl}-benzamide], the concentration for half-maximal inhibition (IC50) is greater than 10 µM.

Regarding `Cc1cn(Cc2ccc(Cl)cc2Cl)c2c(-c3nnc(NC(=O)c4ccc(F)c(F)c4)o3)cc(F)cc12` [Compound B26, N-{5-[1-(2,4-Dichloro-benzyl)-5-fluoro-3-methyl-1H-indol-7-yl]-[1,3,4]oxadiazol-2-yl}-3,4-difluoro-benzamide], the IC50 is less than 1 µM.

Turning to `Cc1cn(Cc2ccc(Cl)cc2Cl)c2c(-c3nnc(NC(=O)c4ccc(F)cc4F)o3)cc(F)cc12` [Compound B27, N-{5-[1-(2,4-Dichloro-benzyl)-5-fluoro-3-methyl-1H-indol-7-yl]-[1,3,4]oxadiazol-2-yl}-2,4-difluoro-benzamide], the half-maximal inhibitory concentration (IC50) fell in the range of 1 to 10 µM.

With `Cc1cn(Cc2ccc(Cl)cc2Cl)c2c(-c3nnc(NC(=O)c4ccc(Cl)cc4Cl)o3)cc(F)cc12` [Compound B28, 2,4-Dichloro-N-{5-[1-(2,4-dichloro-benzyl)-5-fluoro-3-methyl-1H-indol-7-yl]-[1,3,4]oxadiazol-2-yl}-benzamide], the IC50 was 1 to 10 µM.

Consider `Cc1cn(Cc2ccc(Cl)cc2Cl)c2c(-c3nnc(NC(=O)c4ccc5c(c4)OC(F)(F)O5)o3)cc(F)cc12` [Compound B29, 2,2-Difluoro-benzo[1,3]dioxole-5-carboxylic acid {5-[1-(2,4-dichloro-benzyl)-5-fluoro-3-methyl-1H-indol-7-yl]-[1,3,4]oxadiazol-2-yl}-amide], for which the IC50 is less than 1 µM.

For `Cc1cn(Cc2ccc(Cl)cc2Cl)c2c(-c3nnc(NC(=O)c4ccco4)o3)cc(F)cc12` [Compound B30, Furan-2-carboxylic acid {5-[1-(2,4-dichloro-benzyl)-5-fluoro-3-methyl-1H-indol-7-yl]-[1,3,4]oxadiazol-2-yl}-amide], the IC50 was less than 1 µM.
